Where a SMILES comes first, the peptide text is derived from it. Bridges are numbered along the chain shown (N, C = ends).
Experiments:
CD8α = experiment: phage spot ELISA on CD8α; format: binding; conditions: S3 Table sheet CD8α; for S/N: phage spot ELISA signal/noise; for ELISA: phage spot ELISA signal
Description: (§1) To determine the performance of the libraries for ligand discovery we chose a panel of eight protein targets, which have no structural homology and a wide mass range (Fig 7C). We screened these eight targets with solution panning strategy and two additional plate panning for CD8α/β and CD28, thus ten panning campaigns in total. We consider clones showing spot phage ELISA signal > 0.3 and signal/noise ratio > 2 as positive hits. At least one binding hit was discovered for nine out of the ten panning campaigns, surpassing the success rate of the best DCP scaffolds reported previously. We also obtained the NGS data for these screening and the ranking of clones for their enrichment along the rounds of screening was analyzed and considered the top-ranking clones as potential hits. Based on their sequence diversity we selected 16 potential hits spanning five protein targets for peptide synthesis in their linear form. Seven of these are hits with positive phage ELISA signal and nine were selected based on NGS ranking without spot ELISA available. Subsequently, we conducted in vitro folding experiments on these peptides in various buffers. We observed a strong propensity for spontaneous folding regardless of the buffer condition. All HCP hits tested successfully folded into three-disulfide-containing product within two days in a universal buffer system (PBS, pH 7.4, 50% DMSO) without the need for a redox pair, as shown in Fig 8A. The binding of these folded peptides to their respective target proteins was confirmed using SPR (Table 4 and S1 Data) and binding kinetics are exemplified by the high-affinity peptide 5ji4-CRD7-2 (see Fig 8B). Among seven selected ELISA-positive hits, all of them were successfully synthesized and in vitro folded with three disulfide bonds and five were proven to be validated binders by SPR (Table 4). Nine peptides selected from the NGS ranking were synthesized and folded with the expected number of disulfide bonds and five of them bound to their target with affinities in the μM range as determined by SPR (Table 4). In general, binding affinities for these SPR-validated initial hits are weak, with Kd values in the micromolar range and fast on- and off-rates. There are two exceptions with binding affinities in the nanomolar range.
(§2) The 5ji4 libraries were constructed following the Kunkel mutagenesis method and the solution panning protocol was followed as previously described. After four to five rounds of binding selection, while eluted pool was subjected to NGS analysis, individual phage clones were also picked and analyzed with phage spot ELISA. Positive clones were subjected to SANGER sequencing.

RSP02 = experiment: phage spot ELISA on RSP02; format: binding; conditions: for S/N: phage spot ELISA signal/noise; for S/N / ELISA: S3 Table sheet RSP02; for ELISA: phage spot ELISA signal
Description: as §1, §2

Question: Which results are given for “PAMLLQRNRPYGLLPEECERLCRKLGVTTACHCG [CD8α clone 1, phage clone, 5JI4 library, CD8α panning]”?
Answer: S/N (CD8α): 39.9; ELISA (CD8α): 4.75

Question: With “PCECTYKDDWQKGASSEECERLCRKLGVTNCRVHCG [RSP02 clone 1, phage clone, 5JI4 library, RSP02 panning]” as the compound, how does the S/N (RSP02) read?
Answer: The S/N was 1.427.

Question: What about the ELISA (RSP02) of the same compound?
Answer: Its ELISA is 0.204.

Question: How did the S/N (RSP02) turn out when “PCECVRLSTGRYVKSSEECERLCRKLGVTNCRVHCG [RSP02 clone 5, phage clone, 5JI4 library, RSP02 panning]” was run?
Answer: The S/N was 1.706.

Question: And the ELISA (RSP02)?
Answer: Its ELISA is 0.216.

Question: Which results are given for “PCECDVNGETYTVSSSEECEQDSDCLAGWVCRVHCG [CD8α clone 7, phage clone, 5JI4 library, CD8α panning]”?
Answer: S/N (CD8α): 34.2; ELISA (CD8α): 3.252

Question: “PCECEQPYRDDPDKSSEECERLCRKLGVTNCRVHCG [RSP02 clone 4, phage clone, 5JI4 library, RSP02 panning]” was tested. Which S/N (RSP02) did it give?
Answer: The S/N was 1.788.

Question: What about the ELISA (RSP02) of the same compound?
Answer: The ELISA was 0.177.

Question: How did the S/N (CD8α) turn out when “PCECDVNGETYTVSSSEECERCQDWLFYLCRVHCG [CD8α clone 4, phage clone, 5JI4 library, CD8α panning]” was run?
Answer: Its S/N is 35.6.

Question: What about the ELISA (CD8α) of the same compound?
Answer: The ELISA was 3.525.

Question: Which results are given for `CSCC[C@@H]1NC(=O)[C@H](Cc2c[nH]c3ccccc23)NC(=O)[C@@H]2CSSC[C@H](NC(=O)[C@H](Cc3ccccc3)NC(=O)[C@H](Cc3c[nH]cn3)NC(=O)[C@H](CCC(=O)O)NC(=O)[C@H](CC(N)=O)NC(=O)[C@H](Cc3ccc(O)cc3)NC1=O)C(=O)N[C@@H](CCCNC(=N)N)C(=O)N[C@@H](C(C)C)C(=O)N[C@@H](Cc1c[nH]cn1)C(=O)N[C@H](C(=O)NCC(N)=O)CSSC[C@H](NC(=O)[C@@H]1CCCN1C(C)=O)C(=O)N[C@@H](CCC(=O)O)C(=O)N[C@H]1CSSC[C@H](NC(=O)[C@H](CCC(=O)O)NC(=O)[C@H](CCC(=O)O)NC(=O)[C@H](CO)NC(=O)[C@H](CO)NC(=O)[C@H](CO)NC(=O)[C@H](C(C)C)NC(=O)[C@H]([C@@H](C)O)NC(=O)[C@H](Cc3ccc(O)cc3)NC(=O)[C@H]([C@@H](C)O)NC(=O)[C@H](CCC(=O)O)NC(=O)CNC(=O)[C@H](CC(N)=O)NC(=O)[C@H](C(C)C)NC(=O)[C@H](CC(=O)O)NC1=O)C(=O)N[C@@H](CCC(=O)O)C(=O)N1CCC[C@H]1C(=O)N[C@@H](CC(C)C)C(=O)N2` [5ji4-RSP-1] (Ac-PCECDVNGETYTVSSSEECEPLCWMYNEHFCRVHCG-NH2; disulfide 2-35, 4-19, 23-31; N-terminus and C-terminus assumed)?
Answer: ELISA signal (RSP02; phage spot ELISA of the clone, positive hit: signal > 0.3 and signal/noise > 2): 0.58; ELISA s/n (RSP02; phage spot ELISA signal/noise ratio): 5.22

Question: With “PCECDLNGETYTVSSSEECERLCSWYIQYVCRVHCG [CD8α clone 6, phage clone, 5JI4 library, CD8α panning]” as the compound, how does the S/N (CD8α) read?
Answer: Its S/N is 2.2.

Question: And the ELISA (CD8α)?
Answer: The ELISA was 0.194.

Question: Which S/N (CD8α) does the source give for “PCACDVNGETYTVSSSEECERLCTWWYFVVCRVHCG [CD8α clone 5, phage clone, 5JI4 library, CD8α panning]” here?
Answer: Its S/N is 3.0.

Question: What about the ELISA (CD8α) of the same compound?
Answer: Its ELISA is 0.282.

Question: What does the source list for “PCECDVNGETYTVSSSEECGRLCQYWFIMLCRVHCG [CD8α clone 2, phage clone, 5JI4 library, CD8α panning]”?
Answer: S/N (CD8α): 38.5; ELISA (CD8α): 3.391

Question: For “PCECQPMSNWFDMISSEECERLCRKLGVTNCRVHCG [RSP02 clone 3, phage clone, 5JI4 library, RSP02 panning]”, which S/N (RSP02) is on record?
Answer: The S/N was 0.8496.

Question: What about the ELISA (RSP02) of the same compound?
Answer: The ELISA was 0.192.

Question: Which results are given for “PCECIVRWTTKQLESSEECERLCRKLGVTNCRVHCG [RSP02 clone 2, phage clone, 5JI4 library, RSP02 panning]”?
Answer: S/N (RSP02): 1.515; ELISA (RSP02): 0.2

Question: “PCDCDVNGETYTVSSSEECEPLCLNWLSSLCRVHCG [CD8α clone 3, phage clone, 5JI4 library, CD8α panning]” was tested. Which S/N (CD8α) did it give?
Answer: The S/N was 37.9.

Question: What about the ELISA (CD8α) of the same compound?
Answer: Its ELISA is 3.371.

Question: “PCECDVNGETYTVSSSEECEPLCWMYNEHFCRVHCG [RSP02 clone 6, phage clone, 5JI4 library, RSP02 panning]” was tested. Which S/N (RSP02) did it give?
Answer: Its S/N is 8.917.

Question: What about the ELISA (RSP02) of the same compound?
Answer: The ELISA was 0.856.
